The source of these data is US20250296971A1, “GASTRIC INHIBITORY PEPTIDE RECEPTOR LIGANDS” (priority 2021, published 2025).

SMILES strings stand for the structures. *1 amine or outer side, *2 acyl side, *3 side chain or, on linkers, in order; H or OH if unused. Where a SMILES comes first, the peptide text is derived from it. Bridges are numbered along the chain shown (N, C = ends). Side-chain parts run from the residue outwards. [ ]: non-standard residue; d: D form. The star is where a group is joined. X2 = O=C(O)CN1CCN(CC(=O)O)CCN(CC(=O)N[C@@H](CCC(=O)NC[C@H](O)[C@@H](O)[C@H](O)[C@H](O)CO)C(=O)*)CCN(CC(=O)O)CC1; NH(1-deoxy-D-glucityl) = OC[C@@H](O)[C@@H](O)[C@H](O)[C@@H](O)CN*; DOTA = O=C(O)CN1CCN(CC(=O)O)CCN(CC(=O)*)CCN(CC(=O)O)CC1; Trp(5-Cl) = N[C@@H](Cc1c[nH]c2ccc(Cl)cc12)C(=O)O; Pyridine(2,6-diCH2) = c1cc(C[*:1])nc(C[*:2])c1; Pro(4R-NH2) = N[C@H]1CN[C@H](C(=O)O)C1; Glutaryl = O=C(CCCC(=O)[*:2])[*:1]; Hyp = O=C(O)[C@@H]1C[C@@H](O)CN1; X1 = O=C(CN1CCC(N[*:1])CC1)[*:2]; hSer = N[C@@H](CCO)C(=O)O; Api = NC1(C(=O)O)CCNCC1; AEEA = NCCOCCOCC(=O)O

This test deals with T1, GIPR (CHO-K1-hGIPR cells) (Homo sapiens, UniProt P48546).
T1 construct: host or cells: CHO-K1
T1 sequence (P48546 22-466): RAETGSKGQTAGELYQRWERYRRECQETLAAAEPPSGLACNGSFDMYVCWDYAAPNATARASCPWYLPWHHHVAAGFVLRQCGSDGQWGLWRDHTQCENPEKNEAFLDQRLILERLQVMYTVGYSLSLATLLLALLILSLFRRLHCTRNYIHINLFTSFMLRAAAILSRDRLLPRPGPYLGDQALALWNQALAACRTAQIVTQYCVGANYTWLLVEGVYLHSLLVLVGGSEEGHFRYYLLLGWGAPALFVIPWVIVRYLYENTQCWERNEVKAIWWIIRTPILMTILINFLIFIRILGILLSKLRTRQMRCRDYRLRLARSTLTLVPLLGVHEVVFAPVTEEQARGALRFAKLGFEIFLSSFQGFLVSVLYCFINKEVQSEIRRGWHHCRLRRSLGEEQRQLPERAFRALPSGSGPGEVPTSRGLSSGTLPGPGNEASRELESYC
Nature of the test: FACS binding assay. To be noted: competition with 20 nM GIP-057, 4° C., 1 hour, read-out: pIC50 Category (converted). The method, boiled down:
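Median fluorescence in the APC channel, measured on washed CHO-K1 cells overexpressing human GIPR, was fitted by four-parameter logistic regression against peptide concentration to yield EC50 or IC50 values. Secondary labelling used APC-streptavidin (1 μg/mL, 30 min, ice).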
A general note: A flow cytometer gives signals particle by particle.
Take `CC[C@H](C)[C@@H]1NC(=O)[C@H](CC(C)C)NC(=O)C2(CCN(C(=O)CCCC(=O)NC[C@H](O)[C@@H](O)[C@H](O)[C@H](O)CO)CC2)NC(=O)[C@@H](NC(=O)[C@@H](CC(C)C)NC(=O)[C@H](CCC(=O)O)NC(=O)[C@@H]2C[C@@H](N)CN2C(=O)[C@H](Cc2c[nH]c3ccc(Cl)cc23)NC(=O)[C@H](Cc2c[nH]c3ccccc23)NC(=O)[C@H](CC(=O)O)NC(=O)[C@@H](CCC(=O)NC[C@H](O)[C@@H](O)[C@H](O)[C@H](O)CO)NC(=O)COCCOCCNC(=O)CN2CCN(CC(=O)O)CCN(CC(=O)O)CCN(CC(=O)O)CC2)CSCc2cccc(n2)CSC[C@@H](C(=O)NC2CCN(CC(=O)N[C@H](CCC(=O)NC[C@H](O)[C@@H](O)[C@H](O)[C@H](O)CO)C(N)=O)CC2)NC1=O` [GIP-044, DOTA-02Oc-glu(AGLU)-Asp-Trp-5Clw-Tap-Glu-leu-[Cys(2Lut)-Apc(AGLU-Glutar)-Leu-Ile-Cys]-APAc-glu(AGLU)-NH2] ({DOTA-AEEA}-[dE](NH(1-deoxy-D-glucityl))DW[Trp(5-Cl)][Pro(4R-NH2)]E[dL]C[Api]([Glutaryl-NH(1-deoxy-D-glucityl)])LIC[X1][dE](NH(1-deoxy-D-glucityl))-NH2; linker 8-12 via Pyridine(2,6-diCH2)): the IC50 is less than 10 nM. Under `CC[C@H](C)[C@@H]1NC(=O)[C@H](CC(C)C)NC(=O)C2(CCN(C(=O)CCCC(=O)NC[C@H](O)[C@@H](O)[C@H](O)[C@H](O)CO)CC2)NC(=O)[C@@H](NC(=O)[C@@H](CC(C)C)NC(=O)[C@H](CCC(=O)O)NC(=O)[C@@H]2C[C@@H](N)CN2C(=O)[C@H](Cc2c[nH]c3ccc(Cl)cc23)NC(=O)[C@H](Cc2c[nH]c3ccccc23)NC(=O)[C@H](CC(=O)O)NC(=O)[C@@H](CCC(=O)NC[C@H](O)[C@@H](O)[C@H](O)[C@H](O)CO)NC(=O)CN2CCN(CC(=O)O)CCN(CC(=O)O)CCN(CC(=O)O)CC2)CSCc2cccc(n2)CSC[C@@H](C(=O)NC2CCN(CC(=O)N[C@H](CCC(=O)NC[C@H](O)[C@@H](O)[C@H](O)[C@H](O)CO)C(N)=O)CC2)NC1=O` [GIP-045, DOTA-glu(AGLU)-Asp-Trp-5Clw-Tap-Glu-leu-[Cys(2Lut)-Apc(AGLU-Glutar)-Leu-Ile-Cys]-APAc-glu(AGLU)-NH2] ({DOTA}-[dE](NH(1-deoxy-D-glucityl))DW[Trp(5-Cl)][Pro(4R-NH2)]E[dL]C[Api]([Glutaryl-NH(1-deoxy-D-glucityl)])LIC[X1][dE](NH(1-deoxy-D-glucityl))-NH2; linker 8-12 via Pyridine(2,6-diCH2)) stands less than 10 nM.

As for `CC[C@H](C)[C@@H]1NC(=O)[C@H](CC(C)C)NC(=O)C2(CCN(C(=O)[C@H](CCC(=O)NC[C@H](O)[C@@H](O)[C@H](O)[C@H](O)CO)NC(=O)CN3CCN(CC(=O)O)CCN(CC(=O)O)CCN(CC(=O)O)CC3)CC2)NC(=O)[C@@H](NC(=O)[C@@H](CC(C)C)NC(=O)[C@H](CCC(=O)O)NC(=O)[C@@H]2C[C@@H](O)CN2C(=O)[C@H](Cc2c[nH]c3ccc(Cl)cc23)NC(=O)[C@H](Cc2c[nH]c3ccccc23)NC(=O)[C@H](CCO)NC(=O)CN2CCC(NC(=O)CCCC(=O)NC[C@H](O)[C@@H](O)[C@H](O)[C@H](O)CO)CC2)CSCc2cccc(n2)CSC[C@@H](C(=O)NC2CCN(CC(=O)N[C@H](CCC(=O)NC[C@H](O)[C@@H](O)[C@H](O)[C@H](O)CO)C(N)=O)CC2)NC1=O` [GIP-047, AGLU-Glutar-APAc-Hse-Trp-5Clw-Hyp-Glu-leu-[Cys(2Lut)-Apc(DOTA-glu(AGLU))-Leu-Ile-Cys]-APAc-glu(AGLU)-NH2] ({NH(1-deoxy-D-glucityl)-Glutaryl}-[X1][hSer]W[Trp(5-Cl)][Hyp]E[dL]C[Api](X2)LIC[X1][dE](NH(1-deoxy-D-glucityl))-NH2; linker 8-12 via Pyridine(2,6-diCH2)), the IC50 was 10 to 79.4 nM. Under `CC[C@H](C)[C@@H]1NC(=O)[C@H](CC(C)C)NC(=O)C2(CCN(C(=O)CN3CCN(CC(=O)O)CCN(CC(=O)O)CCN(CC(=O)O)CC3)CC2)NC(=O)[C@@H](NC(=O)[C@@H](CC(C)C)NC(=O)[C@H](CCC(=O)O)NC(=O)[C@@H]2C[C@@H](N)CN2C(=O)[C@H](Cc2c[nH]c3ccc(Cl)cc23)NC(=O)[C@H](Cc2c[nH]c3ccccc23)NC(=O)[C@H](CCO)NC(=O)CN2CCC(NC(=O)CCCC(=O)NC[C@H](O)[C@@H](O)[C@H](O)[C@H](O)CO)CC2)CSCc2cccc(n2)CSC[C@@H](C(=O)NC2CCN(CC(=O)N[C@H](CCC(=O)NC[C@H](O)[C@@H](O)[C@H](O)[C@H](O)CO)C(N)=O)CC2)NC1=O` [GIP-050, AGLU-Glutar-APAc-Hse-Trp-5Clw-Tap-Glu-leu-[Cys(2Lut)-Apc(DOTA)-Leu-Ile-Cys]-APAc-glu(AGLU)-NH] ({NH(1-deoxy-D-glucityl)-Glutaryl}-[X1][hSer]W[Trp(5-Cl)][Pro(4R-NH2)]E[dL]C[Api](DOTA)LIC[X1][dE](NH(1-deoxy-D-glucityl))-NH2; linker 8-12 via Pyridine(2,6-diCH2)) stands 10 to 79.4 nM; under `CC[C@H](C)[C@@H]1NC(=O)[C@H](CC(C)C)NC(=O)C2(CCN(C(=O)CN3CCN(CC(=O)O)CCN(CC(=O)O)CCN(CC(=O)O)CC3)CC2)NC(=O)[C@@H](NC(=O)[C@@H](CC(C)C)NC(=O)[C@H](CCC(=O)O)NC(=O)[C@@H]2C[C@@H](N)CN2C(=O)[C@H](Cc2c[nH]c3ccc(Cl)cc23)NC(=O)[C@H](Cc2c[nH]c3ccccc23)NC(=O)[C@H](CC(=O)O)NC(=O)CCCC(=O)NC[C@H](O)[C@@H](O)[C@H](O)[C@H](O)CO)CSCc2cccc(n2)CSC[C@@H](C(=O)NC2CCN(CC(=O)N[C@H](CCC(=O)NC[C@H](O)[C@@H](O)[C@H](O)[C@H](O)CO)C(N)=O)CC2)NC1=O` [GIP-051, AGLU-Glutar-Asp-Trp-5Clw-Tap-Glu-leu-[cys(2Lut)-Apc(DOTA)-Leu-Ile-Cys]-APAc-glu(AGLU)-NH2] ({NH(1-deoxy-D-glucityl)-Glutaryl}-DW[Trp(5-Cl)][Pro(4R-NH2)]E[dL]C[Api](DOTA)LIC[X1][dE](NH(1-deoxy-D-glucityl))-NH2; linker 7-11 via Pyridine(2,6-diCH2)), 10 to 79.4 nM. Turning to `CC[C@H](C)[C@@H]1NC(=O)[C@H](CC(C)C)NC(=O)C2(CCN(C(=O)CN3CCN(CC(=O)O)CCN(CC(=O)O)CCN(CC(=O)O)CC3)CC2)NC(=O)[C@@H](NC(=O)[C@@H](CC(C)C)NC(=O)[C@H](CCC(=O)O)NC(=O)[C@@H]2C[C@@H](N)CN2C(=O)[C@H](Cc2c[nH]c3ccc(Cl)cc23)NC(=O)[C@H](Cc2c[nH]c3ccccc23)NC(=O)[C@H](CC(=O)O)NC(=O)CCCC(=O)NC[C@H](O)[C@@H](O)[C@H](O)[C@H](O)CO)CSCc2cccc(n2)CSC[C@@H](C(=O)NC2CCN(CC(=O)N[C@H](CCC(=O)NC[C@H](O)[C@@H](O)[C@H](O)[C@H](O)CO)C(N)=O)CC2)NC1=O` [GIP-052, AGLU-Glutar-Asp-Trp-5Clw-Tap-Glu-leu-[cys(2Lut)-Apc(DOTA)-Leu-Ile-cys]-APAc-glu(AGLU)-NH2] ({NH(1-deoxy-D-glucityl)-Glutaryl}-DW[Trp(5-Cl)][Pro(4R-NH2)]E[dL]C[Api](DOTA)LIC[X1][dE](NH(1-deoxy-D-glucityl))-NH2; linker 7-11 via Pyridine(2,6-diCH2)), the IC50 was 10 to 79.4 nM.
